Values belong to the compound of their own block, whether it stands above or below them. Calls of active or inactive are those of the source. The rule behind the calls is not given here.
Tests used:
Brugia malayi [1] = experiment: Inhibition of recombinant Brugia malayi MPK1a at 1 uM using FAM-p38tide as substrate by IMAP assay relative to control
Brugia malayi [2] = experiment: Antifilarial activity against adult Brugia malayi assessed as increase in copper-induced reduction in parasite motility at 0.1 to 1 uM measured daily for 5 days; assay type: functional, organism-based
[3] = Ratio of unbound Cmax in mouse at 30 mg/kg, po to IC50 for Brugia malayi MPK1a; assay type: ADME, organism-based; details: in vivo
CYP2C9 = CYP2C9 (Homo sapiens, UniProt P11712); experiment: Inhibition of CYP2C9 (unknown origin) at 5 uM relative to control; assay type: ADME
Sequence of CYP2C9 (P11712 whole entry): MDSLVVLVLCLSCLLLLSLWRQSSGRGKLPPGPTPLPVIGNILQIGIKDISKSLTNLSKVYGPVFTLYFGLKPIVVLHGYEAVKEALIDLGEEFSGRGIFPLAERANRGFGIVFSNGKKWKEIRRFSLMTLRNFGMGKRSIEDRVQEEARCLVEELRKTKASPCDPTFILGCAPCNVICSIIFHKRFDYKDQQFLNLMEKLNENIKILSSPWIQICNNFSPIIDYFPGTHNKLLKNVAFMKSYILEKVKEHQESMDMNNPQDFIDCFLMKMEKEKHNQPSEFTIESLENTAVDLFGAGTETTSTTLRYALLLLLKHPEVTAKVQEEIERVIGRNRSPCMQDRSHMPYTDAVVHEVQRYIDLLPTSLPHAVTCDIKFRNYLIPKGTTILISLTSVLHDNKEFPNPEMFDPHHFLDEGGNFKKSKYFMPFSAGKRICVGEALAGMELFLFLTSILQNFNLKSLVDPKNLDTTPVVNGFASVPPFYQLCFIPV

[4] = Cmax in mouse at 30 mg/kg, po; assay type: ADME, organism-based; design: dose 30 mg/kg, route oral; details: in vivo
[5] = Tmax in mouse at 30 mg/kg, po; assay type: ADME, organism-based; details: in vivo
CYP2D6 = CYP2D6 (Homo sapiens, UniProt P10635); experiment: Inhibition of CYP2D6 (unknown origin) at 5 uM relative to control; assay type: ADME
Sequence of CYP2D6 (P10635 whole entry): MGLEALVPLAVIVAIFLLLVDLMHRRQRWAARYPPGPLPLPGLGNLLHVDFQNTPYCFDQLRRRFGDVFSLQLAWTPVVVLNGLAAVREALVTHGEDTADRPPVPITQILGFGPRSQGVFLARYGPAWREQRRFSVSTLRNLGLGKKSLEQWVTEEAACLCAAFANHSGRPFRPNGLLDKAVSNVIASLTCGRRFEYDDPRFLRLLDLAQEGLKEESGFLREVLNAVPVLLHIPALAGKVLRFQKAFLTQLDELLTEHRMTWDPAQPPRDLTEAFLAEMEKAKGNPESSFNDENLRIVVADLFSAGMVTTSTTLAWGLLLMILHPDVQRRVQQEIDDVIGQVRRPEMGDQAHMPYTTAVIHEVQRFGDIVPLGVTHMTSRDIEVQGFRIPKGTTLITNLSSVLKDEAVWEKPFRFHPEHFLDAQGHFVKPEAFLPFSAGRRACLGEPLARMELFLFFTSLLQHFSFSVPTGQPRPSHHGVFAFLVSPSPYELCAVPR

[6] = AUC in mouse at 30 mg/kg, po; assay type: ADME, organism-based; details: in vivo
CYP1A2 = target: T1, CYP1A2 (Homo sapiens, UniProt P05177); experiment: Inhibition of CYP1A2 (unknown origin) at 5 uM relative to control; assay type: ADME
T1 sequence (P05177 whole entry): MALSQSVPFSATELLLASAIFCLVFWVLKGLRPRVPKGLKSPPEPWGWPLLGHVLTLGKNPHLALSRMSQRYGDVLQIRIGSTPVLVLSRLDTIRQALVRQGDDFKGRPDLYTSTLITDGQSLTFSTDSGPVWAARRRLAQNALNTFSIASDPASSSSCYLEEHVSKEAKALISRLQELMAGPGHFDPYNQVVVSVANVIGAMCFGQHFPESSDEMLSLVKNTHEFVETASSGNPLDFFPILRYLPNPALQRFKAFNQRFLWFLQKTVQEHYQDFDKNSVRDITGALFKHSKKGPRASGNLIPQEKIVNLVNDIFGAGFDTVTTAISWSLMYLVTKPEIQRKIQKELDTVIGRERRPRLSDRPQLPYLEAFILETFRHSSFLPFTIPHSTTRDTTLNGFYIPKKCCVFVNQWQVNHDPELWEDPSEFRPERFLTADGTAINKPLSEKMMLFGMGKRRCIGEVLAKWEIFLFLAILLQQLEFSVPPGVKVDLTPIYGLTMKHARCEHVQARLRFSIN

[7] = Stability in human microsomes assessed as parent compound remaining after 1 hr; assay type: ADME, Microsome; details: read-out: Stability
CYP2C19 = CYP2C19 (Homo sapiens, UniProt P33261); experiment: Inhibition of CYP2C19 (unknown origin) at 5 uM relative to control; assay type: ADME
Sequence of CYP2C19 (P33261 whole entry): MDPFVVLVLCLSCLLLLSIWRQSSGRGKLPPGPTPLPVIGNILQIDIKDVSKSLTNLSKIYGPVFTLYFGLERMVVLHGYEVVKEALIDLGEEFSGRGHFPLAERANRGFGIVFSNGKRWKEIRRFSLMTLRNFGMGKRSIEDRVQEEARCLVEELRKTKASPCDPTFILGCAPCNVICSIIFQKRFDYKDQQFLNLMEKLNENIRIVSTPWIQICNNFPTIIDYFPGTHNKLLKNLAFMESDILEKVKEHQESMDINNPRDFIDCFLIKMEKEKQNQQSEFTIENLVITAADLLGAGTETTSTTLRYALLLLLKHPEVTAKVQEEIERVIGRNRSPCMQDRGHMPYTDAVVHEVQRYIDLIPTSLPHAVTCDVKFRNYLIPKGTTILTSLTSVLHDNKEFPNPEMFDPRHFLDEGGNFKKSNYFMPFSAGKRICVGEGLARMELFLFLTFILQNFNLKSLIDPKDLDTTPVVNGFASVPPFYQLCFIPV

[8] = Protein binding in mouse plasma; assay type: ADME, cell-free; details: read-out: PPB (converted)
[9] = target: Mitogen-activated protein kinase 14 (Homo sapiens, UniProt Q16539); experiment: Inhibition of human p38alpha using FAM-p38tide as substrate by IMAP assay
Sequence of Mitogen-activated protein kinase 14 (Q16539 whole entry): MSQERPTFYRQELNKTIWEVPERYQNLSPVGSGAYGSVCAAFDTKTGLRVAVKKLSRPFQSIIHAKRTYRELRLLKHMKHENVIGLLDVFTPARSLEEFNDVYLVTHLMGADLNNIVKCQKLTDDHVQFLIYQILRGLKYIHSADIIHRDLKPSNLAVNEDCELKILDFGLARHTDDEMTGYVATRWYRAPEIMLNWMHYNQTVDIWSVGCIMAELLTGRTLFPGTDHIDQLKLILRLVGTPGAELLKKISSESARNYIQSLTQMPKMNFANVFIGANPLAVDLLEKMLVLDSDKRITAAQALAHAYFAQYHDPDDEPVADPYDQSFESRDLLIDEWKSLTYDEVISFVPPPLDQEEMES

Brugia malayi [10] = experiment: Antifilarial activity against Brugia malayi microfilaria assessed as increase in copper-induced reduction in parasite motility at 0.1 to 1 uM measured daily for 5 days; assay type: functional, organism-based
[11] = target: Mitogen-activated protein kinase 10 (Homo sapiens) (UniProt P53779); experiment: Inhibition of human JNK3 FAM-EGFR-derived peptide as substrate by IMAP assay
Sequence of Mitogen-activated protein kinase 10 (Homo sapiens) (P53779 whole entry, looked up): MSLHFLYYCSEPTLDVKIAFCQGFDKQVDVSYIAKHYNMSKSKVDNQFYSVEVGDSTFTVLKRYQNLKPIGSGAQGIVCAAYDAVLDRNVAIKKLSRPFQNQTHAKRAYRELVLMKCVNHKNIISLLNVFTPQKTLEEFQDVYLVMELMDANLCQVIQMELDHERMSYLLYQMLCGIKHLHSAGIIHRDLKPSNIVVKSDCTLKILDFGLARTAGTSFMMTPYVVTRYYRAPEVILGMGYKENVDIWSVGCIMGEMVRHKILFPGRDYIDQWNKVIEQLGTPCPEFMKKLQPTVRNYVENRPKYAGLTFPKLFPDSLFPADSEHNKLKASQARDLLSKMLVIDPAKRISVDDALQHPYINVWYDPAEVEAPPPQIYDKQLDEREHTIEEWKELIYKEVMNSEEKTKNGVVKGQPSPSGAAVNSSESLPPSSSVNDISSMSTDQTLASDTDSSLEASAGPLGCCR

[12] = Inhibition of recombinant Brugia malayi MPK1a using FAM-p38tide as substrate by IMAP assay
CYP3A4 = CYP3A4 (Homo sapiens, UniProt P08684); experiment: Inhibition of CYP3A4 (unknown origin) at 5 uM relative to control; assay type: ADME
Sequence of CYP3A4 (P08684 whole entry): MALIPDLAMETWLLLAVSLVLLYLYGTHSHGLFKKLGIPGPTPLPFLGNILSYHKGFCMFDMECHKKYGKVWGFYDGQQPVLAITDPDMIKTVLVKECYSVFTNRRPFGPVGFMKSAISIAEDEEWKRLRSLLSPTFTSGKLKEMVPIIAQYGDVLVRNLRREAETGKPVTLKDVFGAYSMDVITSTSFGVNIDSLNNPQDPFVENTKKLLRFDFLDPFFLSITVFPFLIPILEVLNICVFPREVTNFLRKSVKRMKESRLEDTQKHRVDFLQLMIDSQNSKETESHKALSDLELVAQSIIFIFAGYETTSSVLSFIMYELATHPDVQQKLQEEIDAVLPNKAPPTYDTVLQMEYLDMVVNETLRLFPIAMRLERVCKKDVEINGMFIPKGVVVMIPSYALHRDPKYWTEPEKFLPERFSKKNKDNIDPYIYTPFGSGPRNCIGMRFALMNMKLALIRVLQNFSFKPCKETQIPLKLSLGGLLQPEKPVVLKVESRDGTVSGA

Mus musculus = experiment: Time at which plasma concentration stays above in vitro IC50 for Brugia malayi MPK1a in mouse at 30 mg/kg, po; assay type: ADME, organism-based; details: in vivo
[13] = Stability in mouse microsomes assessed as parent compound remaining after 1 hr; assay type: ADME, Microsome; details: read-out: Stability
[14] = Inhibition of sodium arsenate activated N-terminal GST-tagged Brugia malayi MPK1 expressed in HEK293F cells using FAM-p38tide as substrate by IMAP assay

SMILES: Cc1onc(-c2ccccc2)c1-c1ccnc(NCCNC(=O)OC(C)(C)C)n1
inhibition (Brugia malayi [1]): 0%

SMILES: Cc1onc(-c2ccccc2)c1-c1ccnc(N[C@H]2CC[C@@H](NC(=O)OC(C)(C)C)CC2)n1
inhibition (Brugia malayi [1]): 90% | IC50 [12]: 0.094 µM

SMILES: Cc1onc(-c2ccccc2)c1-c1ccnc(NC2CCCN(C(=O)OC(C)(C)C)C2)n1 (racemic)
inhibition (Brugia malayi [1]): 45%

SMILES: Cc1onc(-c2ccccc2)c1-c1ccnc(N[C@@H]2CCN(C(=O)OC(C)(C)C)C2)n1
inhibition (Brugia malayi [1]): 78%

SMILES: Cc1onc(-c2ccccc2)c1-c1ccnc(N[C@H]2CC[C@H](NC(=O)OC(C)(C)C)CC2)n1
inhibition (Brugia malayi [1]): 83% | IC50 [12]: 0.2 µM

SMILES: OCCC#Cc1nc(-c2ccc(F)cc2)c(-c2ccncc2)n1CCCc1ccccc1 [RWJ-67657]
IC50 [14]: 0.12 µM

SMILES: CC(=O)N1CC[C@@H](Nc2nccc(-c3c(-c4ccccc4)noc3C(F)(F)F)n2)C1
inhibition (Brugia malayi [1]): 28%

SMILES: Cc1onc(-c2ccccc2)c1-c1ccnc(N[C@H]2CCN(C(=O)OC(C)(C)C)C2)n1
inhibition (Brugia malayi [1]): 0% | IC50 [12]: 0.36 µM

SMILES: Cc1onc(-c2ccccc2)c1-c1ccnc(N[C@@H]2CCNC2)n1
inhibition (Brugia malayi [1]): 64% | IC50 [12]: 0.7 µM

SMILES: CC(=O)N[C@H]1CC[C@@H](Nc2nccc(-c3c(-c4ccccc4)noc3C)n2)CC1
inhibition (Brugia malayi [1]): 91% | IC50 [12]: 0.094 µM

SMILES: Cc1onc(-c2ccccc2)c1-c1ccnc(N[C@@H]2CCN(S(=O)(=O)c3ccccc3)C2)n1
inhibition (Brugia malayi [1]): 44%

SMILES: Cc1onc(-c2ccccc2)c1-c1ccnc(NC2CCN(C(=O)OC(C)(C)C)CC2)n1
inhibition (Brugia malayi [1]): 0%

SMILES: C[S+]([O-])c1ccc(-c2nc(-c3ccc(F)cc3)c(-c3ccncc3)[nH]2)cc1 (stereo unspecified) [SB-203580]
IC50 [14]: 0.22 µM

Second part, led by results:

inhibition (Brugia malayi [1]): 45%
SMILES: Cc1onc(-c2ccccc2)c1-c1ccnc(NCCCNC(=O)OC(C)(C)C)n1

Ratio [3]: 10 | inhibition at 5 µM (CYP2C9): 59% | Cmax [4]: 2.96 µM | inhibition (Brugia malayi [1]): 93% | Tmax [5]: 30 min | inhibition at 5 µM (CYP2D6): 32% | AUC [6]: 5.3 µM·h | inhibition at 5 µM (CYP1A2): 29% | remaining at 1 h [7]: 89% | inhibition at 5 µM (CYP2C19): 76% | fraction unbound [8]: 0.08 | IC50 [9]: 0.026 µM | IC50 [11]: 0.17 µM | IC50 [12]: 0.024 µM | inhibition at 5 µM (CYP3A4): 51% | Time (Mus musculus): 8 h | remaining at 1 h [13]: 89%
SMILES: CC(=O)N[C@H]1CC[C@H](Nc2nccc(-c3c(-c4ccccc4)noc3C)n2)CC1
Activity (Brugia malayi [2]): Active | Activity (Brugia malayi [10]): Active

inhibition (Brugia malayi [1]): 12%
SMILES: Cc1onc(-c2ccccc2)c1-c1ccnc(N[C@@H]2CCN(C(=O)c3ccccc3)C2)n1

inhibition (Brugia malayi [1]): 7%
SMILES: CC(=O)N1CC[C@@H](Nc2nccc(-c3c(-c4ccccn4)noc3C)n2)C1

inhibition (Brugia malayi [1]): 70% | IC50 [12]: 0.52 µM
SMILES: Cc1onc(-c2ccccc2)c1-c1ccnc(N[C@@H]2CCN(S(C)(=O)=O)C2)n1

inhibition (Brugia malayi [1]): 87% | IC50 [12]: 0.13 µM
SMILES: CC(=O)N1CC[C@@H](Nc2nccc(-c3c(-c4ccccc4)noc3C)n2)C1

inhibition (Brugia malayi [1]): 3%
SMILES: CC(=O)N1CC[C@@H](Nc2nccc(-c3c(-c4cccnc4)noc3C)n2)C1

IC50 [14]: 0.14 µM
SMILES: Cc1ccc(-n2nc(C(C)(C)C)cc2NC(=O)Nc2ccc(OCCN3CCOCC3)c3ccccc23)cc1 [DORAMAPIMOD]

Reference: ChEMBL document CHEMBL4251696, “Discovery of a Stress-Activated Protein Kinase Inhibitor for Lymphatic Filariasis” (ACS Med Chem Lett, 2018)
